The text below walks through data of ChEMBL document CHEMBL1201862, “PubChem BioAssay data set” (2004).

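How tested: cells in 96-well plates exposed to compound for 48 hours at five concentrations. GI50 marks 50% less growth.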 The source made the active and inactive calls. Rule as the data show it: active = GI50 up to about 1.1 µM and inactive = higher. Numbered stars: 1 amine (or outer) side, 2 acyl side, 3 side chain; on linkers, the order of the positions; unused ones are H or OH. Square brackets hold non-standard residues; d marks the D form. Peptide text beside a SMILES is read from it. * marks the point of attachment. X30 = CC(=O)N(C)SCC(N[*:1])C(=O)[*:2]; Cbz = O=C(OCc1ccccc1)*; Bn = c1ccc(C*)cc1

Among the test systems are NCI-H226; SK-MEL-28; SF-295; SK-OV-3; SF-539; Malme-3M; OVCAR-5; UACC-257; HCT-15; MDA-MB-231; DU-145; RXF 393; NCI-H23; SR; UACC-62; 786-0; TK-10; SN12C; SK-MEL-2; CAKI-1.
Assay in all cases: NCI tumour cell line growth inhibition, 48 h

Consider `CC(=O)N(C)SCC(NC(=O)C(Cc1ccccc1)NC(=O)OCc1ccccc1)C(=O)NC(Cc1ccccc1)C(=O)NC(Cc1c[nH]c2ccccc12)C(=O)NC(CCCCNC(=O)OCc1ccccc1)C(=O)NC(C(=O)NC(CSN(C)C(C)=O)C(=O)NC(C(N)=O)C(C)OCc1ccccc1)C(C)OCc1ccccc1` (stereo not given) (Cbz-F[X30]FWK(Cbz)T(Bn)[X30]T(Bn)-NH2; configuration not given here), for which the GI50 in the assay with NCI-H226 is > 100 µM (inactive); in the assay on SK-MEL-28, > 100 µM (inactive); in the assay with SF-295, > 100 µM (inactive); with SK-OV-3 it was 1.63 µM (inactive); in the assay on SF-539 it was > 100 µM (inactive); with Malme-3M it was > 100 µM (inactive). The GI50 was > 100 µM (inactive) with OVCAR-5; > 100 µM (inactive) with UACC-257; more than 100 µM with HCT-15; 35.3 µM (inactive) in the assay with MDA-MB-231; > 100 µM (inactive) in the assay with DU-145; > 100 µM (inactive) with RXF 393. In addition, the GI50 with NCI-H23, in the assay with SR, in the assay on UACC-62, in the assay with 786-0, with TK-10 and in the assay with SN12C was > 100 µM (inactive) each time. In addition, in the assay with SK-MEL-2, the GI50 was > 100 µM (inactive).
Consider `N#Cc1c(Cl)cccc1Oc1ccc(S(=O)(=O)/N=C(\NN)Nc2ccc(Cl)cc2)cc1`, for which the GI50 with NCI-H226 is 17.4 µM (inactive); in the assay on SK-MEL-28, 31.8 µM (inactive); with SF-295, 24.2 µM (inactive); in the assay with SK-OV-3, 32.3 µM (inactive); in the assay on SF-539, 17.7 µM (inactive); in the assay with OVCAR-5, 28.5 µM (inactive). For the same compound, the GI50 with CAKI-1 was 33.3 µM (inactive); with UACC-257, 29.9 µM (inactive); in the assay with HCT-15, 34.4 µM; with MDA-MB-231, 27.4 µM (inactive); in the assay on DU-145, 25.5 µM (inactive); with RXF 393 it was 19.1 µM (inactive). For the same compound, the GI50 in the assay with NCI-H23 was 24.3 µM (inactive); in the assay with SR, 0.0177 µM (active); with UACC-62 it was 19.1 µM (inactive); in the assay on 786-0 it was 23.8 µM (inactive); in the assay on TK-10 it was 26.9 µM (inactive); in the assay with SN12C it was 25.2 µM (inactive). For the same compound, the GI50 in the assay with SK-MEL-2 is 21.6 µM (inactive).
As for `O=c1[nH]cnc2c1ncn2[C@@H]1C[C@@H]1CO`, the GI50 with NCI-H226, in the assay on SK-MEL-28, with SF-539, with Malme-3M, with OVCAR-5 and in the assay with CAKI-1 was > 100 µM (inactive) each time. Also, the GI50 was > 100 µM (inactive) in the assay with UACC-257; more than 100 µM with HCT-15; > 100 µM (inactive) in the assay on MDA-MB-231; > 100 µM (inactive) with DU-145; > 100 µM (inactive) in the assay with RXF 393; > 100 µM (inactive) in the assay with NCI-H23. Moreover, the GI50 in the assay on SR, with UACC-62, in the assay with 786-0, in the assay on TK-10, in the assay with SN12C and in the assay on SK-MEL-2 was > 100 µM (inactive) each time.
In the case of `CCC(C)N1CN(c2ccccc2)C2(CCN(CC3COc4ccccc4O3)CC2)C1=O` (stereo not given), the GI50 in the assay with NCI-H226 is 21 µM (inactive); with SK-MEL-28, 39.7 µM (inactive); with SF-295, 19 µM (inactive); with SK-OV-3, 33.6 µM (inactive); in the assay on SF-539 it was 17.8 µM (inactive); in the assay with Malme-3M, 18.5 µM (inactive). In addition, the GI50 in the assay with OVCAR-5 was > 10 µM (inactive); in the assay with CAKI-1 it was 16.9 µM (inactive); with UACC-257, 23.9 µM (inactive); with HCT-15, 19.7 µM; in the assay with MDA-MB-231, > 100 µM (inactive); with DU-145 it was 21.6 µM (inactive). Also, the GI50 in the assay with RXF 393 was 20.9 µM (inactive); with NCI-H23, 22.9 µM (inactive); in the assay on SR, 17.9 µM (inactive); in the assay with UACC-62 it was 19 µM (inactive); with 786-0 it was 18 µM (inactive); in the assay on TK-10, 27.5 µM (inactive). Besides, in the assay on SN12C, the GI50 was 27.7 µM (inactive).
